In patent US20250136583A1, “NOVEL SALT FORMS OF ISOCHROMAN-IMIDAZOLE STRUCTURED ALPHA-2A ADRENOCEPTOR AGONIST” (ORION CORPORATION, priority 2022, published 2025):
Counter-ions that a name gives are not always drawn.

Experiments:
[1] = Physical stability of the salts (storage at elevated temperature and relative humidity, re-analysis by XRPD); format: physicochemical; details: for Form after stability / Physical stability: solids exposed for 2 or 3 weeks at 40° C. and 70-80% relative humidity; for Form after stability: XRPD; for Physical stability: re-analyzed by XRPD; for Crystalline form conversion on storage: 40° C., 75% RH for 3 weeks
Procedure: XRPD measurements were performed with the X-ray powder diffractometer Bruker D8 Advance at room temperature, using a copper filled X-ray tube (40 kV×40 mA) as the X-ray source, CuKα (λ=1.5418 Å), a 0.6 mm divergence slit, 2.5° Soller slits on both the primary and secondary beams and the 1-dimensional LynxEye detector (with aperture angle of 2.91593°). Data collection was done in the range of 3.8-33° 2θ with 0.02° increments, at a scan speed of 0.3°/s.
A stability test was carried out for all crystalline salt forms resulted from the salt screen by exposing the solids for 2 or 3 weeks at 40° C. and 70-80% relative humidity. After exposure, the solids were re-analyzed by XRPD, followed by physical stability assessment.

[2] = Chemical stability of the salts (stress at 60° C. and 75% relative humidity, purity by UHPLC); format: physicochemical; details: for Purity (%) of 1 day stress samples / Difference between reference and 1 day stressed sample: 1 day at 60° C. and 75% relative humidity; for Purity (%) of 1 day stress samples / Purity (%) of 14 day stress samples / Purity (%) of reference: UHPLC; for Difference between reference and 1 day stressed sample / Difference between reference and 14 day stressed sample: purity difference, in %; for Purity (%) of 14 day stress samples / Difference between reference and 14 day stressed sample: 14 days at 60° C. and 75% relative humidity; for Purity (%) of reference: unstressed sample
Procedure: The purity analyses were performed using Agilent UHPLC equipment with PDA/DAD detector at 210 nm wavelength and reverse phase liquid chromatography column Acquity UPLC HSS T3, 100×3.0 mm, 1.8 μm (Waters). The chromatography was performed with gradient run using acetonitrile and phosphate buffer (pH 3.0) as eluents.
The chemical stability of various salts of compound (I) was determined by stressing the salts for 1 and 14 days at 60° C. and 75% relative humidity. The unstressed sample was used as an reference. The purity of the samples were analyzed using UHPLC, and the purity difference between the stressed and reference was calculated.

Form after stability [1]	Physical stability [1]	Purity (%) of 1 day stress samples [2] [%]	Difference between reference and 1 day stressed sample [2]	Purity (%) of 14 day stress samples [2] [%]	Difference between reference and 14 day stressed sample [2]	Purity (%) of reference [2] [%]	Structure (SMILES)	also measured
Form 1	Stable	97.7	1.6	35.6	63.6	99.2	COc1cccc2c1CCOC2C1=NCCN1 (centres unmarked) [Mucic acid salt Form 1, 2-(5-methoxyisochroman-1-yl)-4,5-dihydro-1H-imidazole]	Physical stability ([1]; listed as mucic acid): remained stable
Form 1	Stable	64.0	35.7	33.3	66.4	99.6	COc1cccc2c1CCOC2C1=NCCN1 (centres unmarked) [Maleic acid salt Form 1, 2-(5-methoxyisochroman-1-yl)-4,5-dihydro-1H-imidazole]	Physical stability ([1]; listed as maleic acid): remained stable
Form 1	Stable	96.6	1.5	72.7	25.5	98.2	COc1cccc2c1CCOC2C1=NCCN1 (centres unmarked) [Malonic acid salt Form 1, 2-(5-methoxyisochroman-1-yl)-4,5-dihydro-1H-imidazole]	Physical stability ([1]; listed as malonic acid): remained stable
Form 1	Unstable	97.5	1.0	88.3	10.3	98.6	COc1cccc2c1CCOC2C1=NCCN1 [L-tartaric acid salt Form 2, 2-(5-methoxyisochroman-1-yl)-4,5-dihydro-1H-imidazole]	Crystalline form conversion on storage [1]: turned into form 1; Form after stability ([1]; listed as L-tartaric acid (form 2)): completely
Form 1 + Form 2							COc1cccc2c1CCOC2C1=NCCN1 (centres unmarked) [Saccharin salt Form 1, 2-(5-methoxyisochroman-1-yl)-4,5-dihydro-1H-imidazole]	Crystalline form conversion on storage [1]: partially conversion into form 2; Form after stability ([1]; listed as saccharin (form 1)): changed partially
		95.0	2.1	91.5	5.6	97.1	COc1cccc2c1CCOC2C1=NCCN1 (centres unmarked) [Saccharin salt, 2-(5-methoxyisochroman-1-yl)-4,5-dihydro-1H-imidazole]	
Amorphous	Unstable						COc1cccc2c1CCOC2C1=NCCN1 (centres unmarked) [Methanesulfonic acid salt Form 1, 2-(5-methoxyisochroman-1-yl)-4,5-dihydro-1H-imidazole]	Form after stability ([1]; listed as methanesulfonic acid): turned into amorphous phase
Form 2	Stable						COc1cccc2c1CCOC2C1=NCCN1 (centres unmarked) [Saccharin salt Form 2, 2-(5-methoxyisochroman-1-yl)-4,5-dihydro-1H-imidazole]	Physical stability ([1]; listed as saccharin (form 2)): remained stable
extra peaks in the XRPD pattern							COc1cccc2c1CCOC2C1=NCCN1 [L-Glutamic acid salt Form 1, 2-(5-methoxyisochroman-1-yl)-4,5-dihydro-1H-imidazole]	

Further lines, the molecule ahead of its results:

Structure (SMILES)	Form after stability [1]	Physical stability [1]	Purity (%) of 1 day stress samples [2] [%]	Difference between reference and 1 day stressed sample [2]	Purity (%) of 14 day stress samples [2] [%]	Difference between reference and 14 day stressed sample [2]	Purity (%) of reference [2] [%]	also measured
COc1cccc2c1CCOC2C1=NCCN1 (centres unmarked) [Hydrochloric acid salt Form 1, 2-(5-methoxyisochroman-1-yl)-4,5-dihydro-1H-imidazole]	Form 1	Stable	89.8	8.7	69.0	29.5	98.6	Physical stability ([1]; listed as hydrochloric acid): remained stable
COc1cccc2c1CCOC2C1=NCCN1 (centres unmarked) [Fumaric acid salt Form 1, 2-(5-methoxyisochroman-1-yl)-4,5-dihydro-1H-imidazole]	Form 1	Stable						Physical stability ([1]; listed as fumaric acid (form 1)): remained stable
COc1cccc2c1CCOC2C1=NCCN1 (centres unmarked) [Fumaric acid salt Form 2, 2-(5-methoxyisochroman-1-yl)-4,5-dihydro-1H-imidazole]	Form 2	Stable	97.6	−0.3	98.0	−0.8	97.2	Physical stability ([1]; listed as fumaric acid (form 2)): remained stable
COc1cccc2c1CCOC2C1=NCCN1 (centres unmarked) [Hydrobromic acid salt Form 1, 2-(5-methoxyisochroman-1-yl)-4,5-dihydro-1H-imidazole]	Form 1	Stable	98.1	0.2	98.2	0.1	98.3	Physical stability ([1]; listed as hydrobromic acid): remained stable; Chemical stability (in words) ([2]; summary statement): good chemical stability
COc1cccc2c1CCOC2C1=NCCN1 (racemic) [D,L-Lactic acid salt Form 1, 2-(5-methoxyisochroman-1-yl)-4,5-dihydro-1H-imidazole]	Form 2	Unstable						Form after stability ([1]; listed as D,L-lactic acid): completely
COc1cccc2c1CCOC2C1=NCCN1 [L-Aspartic acid salt Form 1, 2-(5-methoxyisochroman-1-yl)-4,5-dihydro-1H-imidazole]	Form 1 + amorphous	Unstable						Form after stability ([1]; listed as L-aspartic acid): an amorphous phase with characteristic peaks of the counter-ion
COc1cccc2c1CCOC2C1=NCCN1 (centres unmarked) [Cyclamic acid salt Form 1, 2-(5-methoxyisochroman-1-yl)-4,5-dihydro-1H-imidazole]	Form 2	Unstable						Form after stability ([1]; listed as cyclamic acid (form 1)): completely
COc1cccc2c1CCOC2C1=NCCN1 (centres unmarked) [Cyclamic acid salt Form 2, 2-(5-methoxyisochroman-1-yl)-4,5-dihydro-1H-imidazole]								Form after stability ([1]; listed as cyclamic acid (form 2)): extra peaks in the XRPD pattern
COc1cccc2c1CCOC2C1=NCCN1 (centres unmarked) [2-Ketoglutaric acid salt Form 1, 2-(5-methoxyisochroman-1-yl)-4,5-dihydro-1H-imidazole]	Amorphous	Unstable						Form after stability ([1]; listed as 2-ketoglutaric acid): turned into amorphous phase
